Where a name gives a salt, the structure may show the parent alone.

This test concerns KRas G12D-mediated phosphorylation of ERK. Put plainly: Inhibition of KRas G12D-mediated phosphorylation of ERK in AGS cells. The class given is cell-based. Conditions: Homo sapiens; AGS cells expressing G12D, 3 hours, phospho-ERK normalized to GAPDH. In a few lines: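 Fixed, methanol-permeabilized; phospho-ERK (Thr202/Tyr204) by in-cell immunofluorescence normalized to GAPDH. Percent of DMSO control, IC50 by 4-parameter fit.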

`Fc1ccc2cccc(-c3ncc4c(N5C[C@H]6CC[C@@H](C5)N6)nc(OCC56CCCN5CCC6)nc4c3F)c2c1Cl` [Example 98, 4-((1R,5S)-3,8-diazabicyclo[3.2.1]octan-3-yl)-7-(8-chloro-7-fluoronaphthalen-1-yl)-8-fluoro-2-((tetrahydro-1H-pyrrolizin-7a(5H)-yl)methoxy)pyrido[4,3-d]pyrimidine bis(2,2,2-trifluoroacetate)] gave a 50% inhibitory concentration (IC50) of 389 nM. For `CCc1cccc2cc(O)cc(-c3ncc4c(N5C[C@H]6CC[C@@H](C5)N6)nc(OC[C@@]56CCCN5C[C@H](F)C6)nc4c3F)c12` [Example 259, 4-(4-((1R,5S)-3,8-diazabicyclo[3.2.1]octan-3-yl)-8-fluoro-2-(((2R,7aS)-2-fluorotetrahydro-1H-pyrrolizin-7a(5H)-yl)methoxy)pyrido[4,3-d]pyrimidin-7-yl)-5-ethylnaphthalen-2-ol] the value was 3.9 nM; for `CO[C@@H]1CN2CCC[C@]2(COc2nc(N3C[C@H]4CC[C@@H](C3)N4)c3cnc(-c4cccc5cccc(Cl)c45)c(F)c3n2)C1` [Example 219, 4-((1R,5S)-3,8-diazabicyclo[3.2.1]octan-3-yl)-7-(8-chloronaphthalen-1-yl)-8-fluoro-2-((2-methoxytetrahydro-1H-pyrrolizin-7a(5H)-yl)methoxy)pyrido[4,3-d]pyrimidine bis-hydrochloride], 2030 nM.

Turning to `CC1CCc2cccc(-c3ncc4c(N5CC6CCC(C5)N6)nc(OC[C@@H]5CCCN5C)nc4c3F)c21` (stereo partly drawn) [Example 174, 4-((1R,5S)-3,8-diazabicyclo[3.2.1]octan-3-yl)-8-fluoro-7-(3-methyl-2,3-dihydro-1H-inden-4-yl)-2-(((S)-1-methylpyrrolidin-2-yl)methoxy)pyrido[4,3-d]pyrimidine], the 50% inhibitory concentration (IC50) was found to be 12800 nM. For `CS(=O)(=O)NC[C@H]1CC[C@@]2(COc3nc(N4C[C@H]5CC[C@@H](C4)N5)c4cnc(-c5cccc6cccc(Cl)c56)c(F)c4n3)CCCN12` [Example 420, N-(((3R,7aR)-7a-(((4-((1R,5S)-3,8-diazabicyclo[3.2.1]octan-3-yl)-7-(8-chloronaphthalen-1-yl)-8-fluoropyrido[4,3-d]pyrimidin-2-yl)oxy)methyl)hexahydro-1H-pyrrolizin-3-yl)methyl)methanesulfonamide], the IC50 worked out at 7820 nM.

In turn, `Cc1ccc2cccc(-c3ncc4c(N5C[C@H]6CC[C@@H](C5)N6)nc(OC[C@@H]5CCCN5C)nc4c3F)c2c1` [Example 321, 4-((1R,5S)-3,8-diazabicyclo[3.2.1]octan-3-yl)-8-fluoro-7-(7-methylnaphthalen-1-yl)-2-(((S)-1-methylpyrrolidin-2-yl)methoxy)pyrido[4,3-d]pyrimidine] came in with an IC50 above 16700 nM. For `Oc1cc(-c2ncc3c(N4C[C@H]5CC[C@@H](C4)N5)nc(OC[C@@]45CCCN4C[C@H](F)C5)nc3c2F)c2c(Cl)cccc2c1` [Example 251, 4-(4-((1R,5S)-3,8-diazabicyclo[3.2.1]octan-3-yl)-8-fluoro-2-(((2R,7aS)-2-fluorohexahydro-1H-pyrrolizin-7a-yl)methoxy)pyrido[4,3-d]pyrimidin-7-yl)-5-chloronaphthalen-2-ol] the value was 10.3 nM; for `Cc1nccn1CCOc1nc(N2C[C@H]3C[C@@H](O)[C@@H](C2)N3)c2cnc(-c3cccc4cccc(Cl)c34)c(F)c2n1` [Example 167, (1R,5R,6R)-3-(7-(8-chloronaphthalen-1-yl)-8-fluoro-2-(2-(2-methyl-1H-imidazol-1-yl)ethoxy)pyrido[4,3-d]pyrimidin-4-yl)-3,8-diazabicyclo[3.2.1]octan-6-ol], 16100 nM. For `Fc1ccc2cccc(-c3ncc4c(N5C[C@H]6CC[C@@H](C5)N6)nc(OC[C@@]56CCCN5C[C@H](F)C6)nc4c3F)c2c1F` [Example 430, 4-((1R,5S)-3,8-diazabicyclo[3.2.1]octan-3-yl)-7-(7,8-difluoronaphthalen-1-yl)-8-fluoro-2-(((2R,7aS)-2-fluorotetrahydro-1H-pyrrolizin-7a(5H)-yl)methoxy)pyrido[4,3-d]pyrimidine] the value was 141 nM. For `C=Cc1cccc2cccc(-c3ncc4c(N5C[C@H]6CC[C@@H](C5)N6)nc(OC[C@@H]5CCCN5C)nc4c3F)c12` [Example 201, 4-((1R,5S)-3,8-diazabicyclo[3.2.1]octan-3-yl)-8-fluoro-2-(((S)-1-methylpyrrolidin-2-yl)methoxy)-7-(8-vinylnaphthalen-1-yl)pyrido[4,3-d]pyrimidine] the value was 13900 nM. For the molecule `C#Cc1cccc2cccc(-c3ncc4c(N5C[C@H]6CC[C@@H](C5)N6)nc(OC[C@]56CCCN5C[C@@H](F)C6)nc4c3F)c12` [Example 205, 4-((1R,5S)-3,8-diazabicyclo[3.2.1]octan-3-yl)-7-(8-ethynylnaphthalen-1-yl)-8-fluoro-2-(((2S,7aR)-2-fluorotetrahydro-1H-pyrrolizin-7a(5H)-yl)methoxy)pyrido[4,3-d]pyrimidine], inhibition was half-maximal at 242 nM (IC50). Molecule `Oc1cc(-c2ncc3c(N4C[C@H]5CC[C@@H](C4)N5)nc(OC[C@@H]4CCCN4Cc4ccccc4)nc3c2F)c2ccccc2c1` [Example 12, 4-(2-(((S)-1-benzylpyrrolidin-2-yl)methoxy)-4-((1R,5S)-3,8-diazabicyclo[3.2.1]octan-3-yl)-8-fluoropyrido[4,3-d]pyrimidin-7-yl)naphthalen-2-ol] returned a concentration for half-maximal inhibition (IC50) of 4910 nM. Then `CC1CCc2cccc(-c3ncc4c(N5CC6CCC(C5)N6)nc(OC[C@@]56CCCN5C[C@H](F)C6)nc4c3F)c21` (stereo partly drawn) [Example 429, 4-(3,8-diazabicyclo[3.2.1]octan-3-yl)-8-fluoro-2-(((2R,7aS)-2-fluorotetrahydro-1H-pyrrolizin-7a(5H)-yl)methoxy)-7-(3-methyl-2,3-dihydro-1H-inden-4-yl)pyrido[4,3-d]pyrimidine], with 1700 nM; and `Oc1cc(Cl)c(C(F)(F)F)c(-c2ncc3c(N4C[C@H]5CC[C@@H](C4)N5)nc(OC[C@@]45CCCN4C[C@H](F)C5)nc3c2F)c1` [Example 284, 3-(4-((1R,5S)-3,8-diazabicyclo[3.2.1]octan-3-yl)-8-fluoro-2-(((2R,7aS)-2-fluorohexahydro-1H-pyrrolizin-7a-yl)methoxy)pyrido[4,3-d]pyrimidin-7-yl)-5-chloro-4-(trifluoromethyl)phenol], with 17.4 nM. Then `CN1C[C@H](F)C[C@H]1COc1nc(N2C[C@H]3CC[C@@H](C2)N3)c2cnc(-c3cc(O)cc4ccccc34)c(F)c2n1` [Example 16, 4-(4-((1R,5S)-3,8-diazabicyclo[3.2.1]octan-3-yl)-8-fluoro-2-(((2S,4R)-4-fluoro-1-methylpyrrolidin-2-yl)methoxy)pyrido[4,3-d]pyrimidin-7-yl)naphthalen-2-ol], with 3830 nM; and `Oc1cc(-c2ncc3c(N4C[C@H]5CC[C@@H](C4)N5)nc(OCC45CCCN4CCC5)nc3c2F)c2ccccc2c1` [Example 109, 4-(4-((1R,5S)-3,8-diazabicyclo[3.2.1]octan-3-yl)-8-fluoro-2-((tetrahydro-1H-pyrrolizin-7a(5H)-yl)methoxy)pyrido[4,3-d]pyrimidin-7-yl)naphthalen-2-ol bis(2,2,2-trifluoroacetate)], with 330 nM.

`Fc1c(-c2cccc(Cl)c2C2CC2)ncc2c(N3CC4CCC(C3)N4)nc(OCC34CCCN3C[C@H](F)C4)nc12` (mixture of isomers) [Example 342, 4-((1R,5S)-3,8-diazabicyclo[3.2.1]octan-3-yl)-7-(3-chloro-2-cyclopropylphenyl)-8-fluoro-2-((2-fluorotetrahydro-1H-pyrrolizin-7a(5H)-yl)methoxy)pyrido[4,3-d]pyrimidine] came in with a 50% inhibitory concentration (IC50) of 1000 nM.

One may read the IC50 as the concentration that gives 50% inhibition.

These data come from patent US11453683B1, “KRas G12D inhibitors” (Mirati Therapeutics, Inc., priority 2019, dated 2022).
